Reference: publication PMC12079163 (Drug Development Research, 2025)
Where “and” joins values, the source holds several entries; their conditions need not be identical. Equal values may be shown once. Entries after “also recorded” stand apart in the source; their conditions may differ. Read-outs that look alike come from different tables or passages of the source.

What was measured:
[1] = Solubility under the assay conditions; assay type: physicochemical; settings: HDAC, BCL‐2 and cell assays; data not reliable, not reported
[2] = test system: MV4;11 cells; experiment: Annexin V/7AAD apoptosis/death assay by flow cytometry; assay type: cell-based, human; settings: 200 nM; for viability at 0.2 µM: Homo sapiens, 48 h, MV4;11, in Figure 2, read-out: viable cells (AnnV‐/7AAD‐), lower left quadrant
Method: (§1) AnnV/7AAD assays were assessed by flow cytometry and analyzed using FlowLogic software v8.7.
Figure 2 Apoptotic cell death of MV4;11 AML cells. […] As a negative control, an equi‐volume of DMSO‐treated sample was also assessed. Flow cytometric dot plots of 200 nM‐treated MV4;11 cells stained with Annexin‐V and 7AAD depict the gating strategy used to delineate viable cells (AnnV‐/7AAD‐), early apoptotic cells (AnnV+/7AAD‐), and late apoptotic cells (AnnV+/7AAD +).

[3] = molecular target: T1, HDAC1 (Homo sapiens, UniProt Q13547); experiment: HDAC1 fluorogenic assay (BPS Bioscience 50061, run by Nanosyn); assay type: biochemical; settings: for IC50: cell‐free fluorogenic assay, duplicate, errors are SEMs
T1 construct: purchased BPS Bioscience (assay run by Nanosyn) 50061

[4] = molecular target: T2, HDAC6 (Homo sapiens, UniProt Q9UBN7); experiment: HDAC6 fluorogenic assay (BPS Bioscience 50076, run by Nanosyn); settings: for selectivity for HDAC6 over HDAC1 (HDAC6/1 selectivity): ratio of IC50 values
T2 sequence (Q9UBN7 1-1215): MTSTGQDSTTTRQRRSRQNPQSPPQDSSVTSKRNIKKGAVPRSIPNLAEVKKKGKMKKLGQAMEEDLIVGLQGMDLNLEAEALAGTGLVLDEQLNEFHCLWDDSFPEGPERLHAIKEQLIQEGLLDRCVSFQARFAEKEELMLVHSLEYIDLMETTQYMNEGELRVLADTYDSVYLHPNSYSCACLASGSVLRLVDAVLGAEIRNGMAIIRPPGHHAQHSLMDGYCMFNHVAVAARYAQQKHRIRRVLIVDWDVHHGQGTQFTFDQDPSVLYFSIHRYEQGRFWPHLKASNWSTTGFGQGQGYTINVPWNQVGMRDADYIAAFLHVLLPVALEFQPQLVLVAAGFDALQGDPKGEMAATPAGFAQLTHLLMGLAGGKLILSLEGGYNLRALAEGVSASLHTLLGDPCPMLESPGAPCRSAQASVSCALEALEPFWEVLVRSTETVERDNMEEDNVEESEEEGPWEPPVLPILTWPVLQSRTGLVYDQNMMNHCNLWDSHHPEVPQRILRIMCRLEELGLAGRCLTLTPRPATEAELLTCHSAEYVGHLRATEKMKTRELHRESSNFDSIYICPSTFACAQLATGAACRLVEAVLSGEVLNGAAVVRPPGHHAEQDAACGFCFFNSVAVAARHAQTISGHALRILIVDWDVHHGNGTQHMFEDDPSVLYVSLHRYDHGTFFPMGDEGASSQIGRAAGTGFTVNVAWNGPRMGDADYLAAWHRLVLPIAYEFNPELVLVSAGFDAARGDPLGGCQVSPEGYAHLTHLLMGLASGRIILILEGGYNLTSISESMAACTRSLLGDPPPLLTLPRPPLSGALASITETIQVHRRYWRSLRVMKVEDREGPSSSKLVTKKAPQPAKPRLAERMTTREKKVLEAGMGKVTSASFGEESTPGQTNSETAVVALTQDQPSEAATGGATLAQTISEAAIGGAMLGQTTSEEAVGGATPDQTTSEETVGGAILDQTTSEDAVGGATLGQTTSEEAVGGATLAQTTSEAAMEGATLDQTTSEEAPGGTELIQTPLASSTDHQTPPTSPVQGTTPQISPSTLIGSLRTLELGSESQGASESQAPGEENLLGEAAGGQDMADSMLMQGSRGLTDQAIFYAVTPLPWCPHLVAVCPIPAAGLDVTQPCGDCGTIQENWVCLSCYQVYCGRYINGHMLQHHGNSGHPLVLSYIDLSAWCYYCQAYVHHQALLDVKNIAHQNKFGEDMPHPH

[5] = test system: MOLM14 cells; experiment: alamarBlue cell metabolism/viability assay, MOLM14; assay type: cell-based; settings: Homo sapiens
Text: (§2) As described previously, MOLM14 and MV4;11 cell lines (both human AML cell lines harboring both mixed‐lineage‐leukemia (KMT2A) rearrangement and FLT3‐ITD mutations) were obtained from DSMZ (Branschweig, DEU) and ATCC (Manassas, VA), respectively (Goodis et al. [2024]; Moses et al. [2021]); MV4;11 BCL‐2 over‐expressing (OE) cells were generated via lentiviral transduction as described previously (Empty Vector AddGene #227688; BLC‐2 OE AddGene #227690) (Goodis et al. [2024]).
(§3) Cell lines were cultured in RPMI 1640 media (Cellgro, # MDT‐10‐040‐CV) containing 10% fetal bovine serum (Gemini BioProducts #100‐106) and passaged twice per week to maintain cultures in log‐phase‐growth. Upon receipt or derivation, cell lines were expanded and multiple aliquots cryopreserved in DMSO‐containing medium in the vapor phase of liquid nitrogen. Cells were genetically authenticated and confirmed to be mycoplasma‐negative before cryopreservation. Cells from a given cryopreserved aliquot were cultured for no more than 3–4 months.
as §1
(§4) Our dual inhibitors were next evaluated in an alamarBlue^TM cell metabolism/viability assay against 3 human AML cell lines: MOLM14, MV4;11, and MV4;11 BCL‐2 overexpressing (OE). […] However, pleasingly, several of our top compounds based on the cell‐free assay results also performed well in the AML cell‐based metabolism/viability assays.

[6] = test system: MV4;11 BCL‐2 over‐expressing (OE) cells; experiment: alamarBlue cell metabolism/viability assay, MV4;11 BCL‐2 OE; assay type: cell-based; settings: Homo sapiens
Text: as §2, §3, §1, §4

[7] = molecular target: T3, BCL‐2 (Homo sapiens, UniProt P10415); experiment: BCL‐2 TR‐FRET assay (BPS Bioscience 50222, run by Nanosyn); assay type: binding; settings: cell‐free TR‐FRET assay, duplicate, errors are SEMs
T3 construct: purchased BPS Bioscience (assay run by Nanosyn) 50222

[8] = test system: MV4;11 cells; experiment: alamarBlue cell metabolism/viability assay, MV4;11; assay type: cell-based, human; settings: for IC50: at least triplicate, errors are SEMs
Text: as §2, §3, §1, §4

[9] = MOLM-14, at least triplicate, errors are SEMs, read-out: IC50 MOLM‐14
[10] = MV4-11, alamarBlue, at least triplicate, errors are SEMs, read-out: IC50 MV4;11 BCL‐2 OE
[11] = Homo sapiens, MV4-11, alamarBlue

T3 sequence (P10415 whole entry): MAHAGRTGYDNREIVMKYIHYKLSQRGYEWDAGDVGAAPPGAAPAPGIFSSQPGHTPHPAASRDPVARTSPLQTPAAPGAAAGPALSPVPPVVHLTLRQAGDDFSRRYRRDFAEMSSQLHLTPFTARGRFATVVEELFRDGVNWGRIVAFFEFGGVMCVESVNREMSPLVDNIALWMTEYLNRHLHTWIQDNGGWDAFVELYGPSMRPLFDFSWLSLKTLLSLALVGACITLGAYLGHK
T1 sequence (Q13547 whole entry): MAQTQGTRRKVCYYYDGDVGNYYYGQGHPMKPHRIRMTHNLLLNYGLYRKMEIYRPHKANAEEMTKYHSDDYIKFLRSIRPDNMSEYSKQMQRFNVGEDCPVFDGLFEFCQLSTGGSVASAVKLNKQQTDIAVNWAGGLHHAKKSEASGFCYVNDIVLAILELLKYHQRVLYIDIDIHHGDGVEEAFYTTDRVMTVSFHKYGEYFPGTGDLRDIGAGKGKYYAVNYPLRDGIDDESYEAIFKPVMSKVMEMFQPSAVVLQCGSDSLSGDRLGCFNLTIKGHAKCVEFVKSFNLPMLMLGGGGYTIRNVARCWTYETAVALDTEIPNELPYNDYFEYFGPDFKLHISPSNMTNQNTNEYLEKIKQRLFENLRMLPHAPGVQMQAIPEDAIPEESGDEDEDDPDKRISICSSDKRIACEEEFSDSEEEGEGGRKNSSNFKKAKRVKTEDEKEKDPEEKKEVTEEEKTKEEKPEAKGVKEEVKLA

SMILES	IC50 [3] [nM]	IC50 [4] [nM]	selectivity for HDAC6 over HDAC1 (HDAC6/1 selectivity) [4]	IC50 [5, 9] [nM]	IC50 [6, 10] [nM]	IC50 [7]	IC50 [8, 11] [nM]	selectivity for HDAC1 over HDAC6 ([3]; ratio of IC50 values) [fold]	IC50 ([5]; MOLM-14, read-out: IC50 MOLM14 cells) [nM]	IC50 ([6]; MV4-11, alamarBlue, read-out: IC50 MV4;11 OE BCL‐2 cell line) [nM]	IC50 ([8]; alamarBlue) [nM]	solubility under the assay conditions [1]	induction of apoptosis compared with venetoclax ([2]; MV4;11)	viability at 0.2 µM [2] [%]	fold less active than venetoclax, MV4;11 cell metabolism/viability ([8]; IC50 compared with venetoclax)	decrease in % AnnV‐/7AAD‐ (viable) cells ([2]; MV4;11)
CC1(C)CCC(CN2CCN(c3ccc(C(=O)NS(=O)(=O)c4ccc(NCc5ccc(C(=O)Nc6ccc(-c7cccs7)cc6N)cc5)c([N+](=O)[O-])c4)c(Oc4cnc5[nH]ccc5c4)c3)CC2)=C(c2ccc(Cl)cc2)C1 [AMC‐4‐074, 2‐((1H‐pyrrolo[2,3‐b]pyridin‐5‐yl)oxy)‐N‐((4‐((4‐((2‐amino‐4‐(thiophen‐2‐yl)phenyl)carbamoyl)benzyl)amino)‐3‐nitrophenyl)sulfonyl)‐4‐(4‐((4′‐chloro‐5,5‐dimethyl‐3,4,5,6‐tetrahydro‐[1,1′‐biphenyl]‐2‐yl)methyl)piperazin‐1‐yl)benzamide]												solubility proved problematic; also recorded: Limited solubility				
CC1(C)CCC(CN2CCN(c3ccc(C(=O)NS(=O)(=O)c4ccc(NCc5ccc(C(=O)Nc6ccccc6N)cc5)c([N+](=O)[O-])c4)c(Oc4cnc5[nH]ccc5c4)c3)CC2)=C(c2ccc(Cl)cc2)C1 [BD‐4‐213, 2‐((1H‐pyrrolo[2,3‐b]pyridin‐5‐yl)oxy)‐N‐((4‐((4‐((2‐aminophenyl)carbamoyl)benzyl)amino)‐3‐nitrophenyl)sulfonyl)‐4‐(4‐((4′‐chloro‐5,5‐dimethyl‐3,4,5,6‐tetrahydro‐[1,1′‐biphenyl]‐2‐yl)methyl)piperazin‐1‐yl)benzamide]	2880 ± 570	> 30000		1630 ± 36	342 ± 55	< 1 nM and 0.539 nM	19.3 ± 5.6	> 10					induced apoptosis similar to venetoclax	43.9		
CC1(C)CCC(CN2CCN(c3ccc(C(=O)NS(=O)(=O)c4ccc(NCc5ccc(C(=O)NO)cc5)c([N+](=O)[O-])c4)c(Oc4cnc5[nH]ccc5c4)c3)CC2)=C(c2ccc(Cl)cc2)C1 [SF‐8‐038, 2‐((1H‐pyrrolo[2,3‐b]pyridin‐5‐yl)oxy)‐4‐(4‐((4′‐chloro‐5,5‐dimethyl‐3,4,5,6‐tetrahydro‐[1,1′‐biphenyl]‐2‐yl)methyl)piperazin‐1‐yl)‐N‐((4‐((4‐(hydroxycarbamoyl)benzyl)amino)‐3‐nitrophenyl)sulfonyl)benzamide]	> 30000	368 ± 85	> 80 fold	> 10000	2450 ± 96	< 1 nM and 0.617 nM	285 ± 81						somewhat less potent	58.5	~ 3 fold	
CC1(C)CCC(CN2CCN(c3ccc(C(=O)NS(=O)(=O)c4ccc(NCCNC(=O)c5ccc(/C=C/C(=O)NO)cc5)c([N+](=O)[O-])c4)c(Oc4cnc5[nH]ccc5c4)c3)CC2)=C(c2ccc(Cl)cc2)C1 [SF‐8‐062, (E)‐2‐((1H‐pyrrolo[2,3‐b]pyridin‐5‐yl)oxy)‐4‐(4‐((4′‐chloro‐5,5‐dimethyl‐3,4,5,6‐tetrahydro‐[1,1′‐biphenyl]‐2‐yl)methyl)piperazin‐1‐yl)‐N‐((4‐((2‐(4‐(3‐(hydroxyamino)‐3‐oxoprop‐1‐en‐1‐yl)benzamido)ethyl)amino)‐3‐nitrophenyl)sulfonyl)benzamide]	6140 ± 1240		about 20 fold				> 10000									
CC1(C)CCC(CN2CCN(c3ccc(C(=O)NS(=O)(=O)c4ccc(NCC5CCOCC5)c([N+](=O)[O-])c4)c(Oc4cnc5[nH]ccc5c4)c3)CC2)=C(c2ccc(Cl)cc2)C1 [Venetoclax, venetoclax, reference compound]	> 30000	> 30000		1720 ± 59	1020 ± 177		82		1700	1000	82.8 ± 16.7			49.4		~ 50%

More lines, main results first:

IC50 [3] [nM]	IC50 [4] [nM]	selectivity for HDAC6 over HDAC1 (HDAC6/1 selectivity) [4]	IC50 [5, 9] [nM]	IC50 [6, 10] [nM]	IC50 [7]	IC50 [8, 11] [nM]	selectivity for HDAC1 over HDAC6 ([3]; ratio of IC50 values) [fold]	IC50 ([5]; MOLM-14, read-out: IC50 MOLM14 cells) [nM]	IC50 ([6]; MV4-11, alamarBlue, read-out: IC50 MV4;11 OE BCL‐2 cell line) [nM]	IC50 ([8]; alamarBlue) [nM]	SMILES	solubility under the assay conditions [1]	induction of apoptosis compared with venetoclax ([2]; MV4;11)	viability at 0.2 µM [2] [%]	fold less active than venetoclax, MV4;11 cell metabolism/viability ([8]; IC50 compared with venetoclax)	decrease in % AnnV‐/7AAD‐ (viable) cells ([2]; MV4;11)
> 30000	8710 ± 1890	> 3 fold	> 10000	631 ± 50	0.554 ± 0.045 nM	66.2 ± 13.6					CC1(C)CCC(CN2CCN(c3ccc(C(=O)NS(=O)(=O)c4ccc(NCC5CCN(c6ccc(C(=O)NO)cc6)CC5)c([N+](=O)[O-])c4)c(Oc4cnc5[nH]ccc5c4)c3)CC2)=C(c2ccc(Cl)cc2)C1 [AMC‐4‐154, 2‐((1H‐pyrrolo[2,3‐b]pyridin‐5‐yl)oxy)‐4‐(4‐((4′‐chloro‐5,5‐dimethyl‐3,4,5,6‐tetrahydro‐[1,1′‐biphenyl]‐2‐yl)methyl)piperazin‐1‐yl)‐N‐((4‐(((1‐(4‐(hydroxycarbamoyl)phenyl)piperidin‐4‐yl)methyl)amino)‐3‐nitrophenyl)sulfonyl)benzamide]		induced apoptosis similar to venetoclax	49.2		
463 ± 60	149 ± 20	~ 3 fold				> 10000					CC1(C)CCC(CN2CCN(c3ccc(C(=O)NS(=O)(=O)c4ccc(NCCNc5ncc(C(=O)NO)cn5)c([N+](=O)[O-])c4)c(Oc4cnc5[nH]ccc5c4)c3)CC2)=C(c2ccc(Cl)cc2)C1 [BD‐4‐208, 2‐((2‐((4‐(N‐(2‐((1H‐pyrrolo[2,3‐b]pyridin‐5‐yl)oxy)‐4‐(4‐((4′‐chloro‐5,5‐dimethyl‐3,4,5,6‐tetrahydro‐[1,1′‐biphenyl]‐2‐yl)methyl)piperazin‐1‐yl)benzoyl)sulfamoyl)‐2‐nitrophenyl)amino)ethyl)amino)‐N‐hydroxypyrimidine‐5‐carboxamide]					
11600 ± 1760	418 ± 34	~ 30 fold				> 10000					CC1(C)CCC(CN2CCN(c3ccc(C(=O)NS(=O)(=O)c4ccc(NCCNC(=O)c5ccc(C(=O)NO)cc5)c([N+](=O)[O-])c4)c(Oc4cnc5[nH]ccc5c4)c3)CC2)=C(c2ccc(Cl)cc2)C1 [SF‐8‐083, N ^1‐(2‐((4‐(N‐(2‐((1H‐pyrrolo[2,3‐b]pyridin‐5‐yl)oxy)‐4‐(4‐((4′‐chloro‐5,5‐dimethyl‐3,4,5,6‐tetrahydro‐[1,1′‐biphenyl]‐2‐yl)methyl)piperazin‐1‐yl)benzoyl)sulfamoyl)‐2‐nitrophenyl)amino)ethyl)‐N ^4‐hydroxyterephthalamide]					
